The results in this text go back to US20250270648A1, “MOLECULAR SIGNATURE FOR ASSESSING THE RESPONSIVENESS OF CANCER TO MITOCHONDRIA-TARGETED ANTIOXIDANTS” (UNIVERSITÉ CATHOLIQUE DE LOUVAIN, priority 2021, published 2025).

Assay [1] has as its system MDA-MB-436 breast cancer cells. Description: Seahorse oximetry, oxygen consumption rates (OCRs). Format: cell-based, human. The conditions noted are these: MitoQ 100 nM, 48 h. How it is done: (§1) Oxygen consumption rates (OCRs) were determined on a Seahorse XF96 bioenergetic analyzer using the XF cell Mito stress kit (Agilent Technologies®), according to manufacturer's recommendations. Briefly, MDA-MB-231 (10^4 cells/well), SkBr3 (10^4 cells/well), MDA-MB-436 (10^4 cells/well) or MCF10A (10^5 cells/well) were plated on XF96 culture plates 16 h before experiments in DMEM containing 10% FBS, and treated ±MitoQ for 48 h. On the day of analysis, culture media were replaced by DMEM containing 10 mM glucose, 2 mM glutamine, 1.85 g/L NaCl, 3 mg/L phenol red, pH 7.4. Cells were incubated for 1 h in a CO2-free incubator before analysis. Sequentially, basal OCR was acquired without treatment; ATP-linked OCR after the addition of 1 μM of ATP synthase inhibitor oligomycin; maximal OCR after mitochondrial potential disruption using 1 μM of ionophore carbonyl cyanide-4-(trifluoromethoxy) phenylhydrazone (FCCP); and non-mitochondrial OCR after the addition of 0.5 μM of Complex I inhibitor rotenone together with 0.5 μM of Complex III inhibitor antimycin A. All data were normalized by total protein content (Bio-Rad® Protein Assay; catalogue #5000006) measured right after oximetry. Mitochondrial OCRs (mtOCRs) were calculated by subtracting non-mitochondrial OCRs to the corresponding basal, maximal and ATP-linked OCRs.

For assay [2], the system named is MCF10A normal breast epithelial cells. Description: Seahorse oximetry, oxygen consumption rates (OCRs). Format: cell-based, human. The settings on record: MitoQ 100 nM, 48 h. How it is done:
as §1

Assay [3] has as its system MDA-MB-436 cells. The experiment in a line: Western blotting (EMT proteins). Format: cell-based, human. The settings on record: MitoQ 500 nM, 48 h. How it is done: For western blotting (WB), whole-protein extracts from MDA-MB-231, SkBr3 and MDA-MB-436 cells were prepared using RIPA buffer (50 mM Tris pH 7.4, 150 mM NaCl, 1% Triton-X-100, 0.05% sodium deoxycholate, 1 mM EDTA, 0.1% SDS, protease inhibitor cocktail and PhosSTOP Phosphatase Inhibitor Cocktail (Roche®)), centrifuged at 10,000×g for 10 min, and quantified using the Bio-Rad® Protein Assay. Proteins (50 μg for MDA-MB-231 and 100 μg for SkBr3 and MDA-MB-436 cells) were loaded into each lane of a 10-12% polyacrylamide gel in the presence of SDS, and were allowed to separate at 120 V for 90 min. The transfer of proteins onto nitrocellulose membranes was performed using an iBlot 2 Dry Blotting System (Thermo Fisher Scientific®) with the 7 min P0 program. Membranes were then blocked using 5% (w/v) powdered milk for 1 h, and incubated overnight at 4° C. with a primary antibody (Table 4).
β-actin served as a loading control. Immunodetection was performed at room temperature for 1 h using as secondary antibodies a horseradish peroxidase-conjugated goat anti-rabbit (Jackson®, Cat #111-035-003) and goat anti-mouse (Jackson®, Cat #115-035-003) in PBS-Tween containing 5% (w/v) milk or BSA. Detection was performed with ECL reagent (Amersham®, Cat #RPN2209), and protein bands were visualized and captured using ECL imager 600 (Amersham®). They were analyzed using the Image J software (Java).

In assay [4] the test system is MDA-MB-231 human triple-negative breast cancer. The experiment in a line: Spontaneous metastasis and recurrence, orthotopic MDA-MB-231 model. Format: in vivo, mouse. The settings on record: MitoQ 20 mg/kg daily oral. How it is done: For spontaneous metastasis assays using human breast cancer cells, MDA-MB-231, SkBr3 or MDA-MB-436 cells were prepared in medium containing 10% growth factor-reduced Matrigel (Corning®, cat #734-11-01). Five weeks-old female Rj:NMRI-Foxnlnu/nu mice (Janvier) were injected with 10^6 cancer cells in 100 μL of solution in the left second mammary fat pad. After tumor take (72 h), mice were daily treated ±20 mg/Kg MitoQ by oral gavage. Tumor size was measured once per week with an electronic caliper. Four weeks after treatment initiation, primary tumors were surgically removed and processed for RT-qPCR. Tumor recurrence was monitored until recurred tumors in the vehicle group reached about […], i.e. 24 days after surgery. At this time point, mice were sacrificed and their lungs collected and fixed in PFA 4% for immunocytochemistry.
Collected lungs were processed for immunohistochemistry as previously shown. They were stained for Cytokeratin 19 (CK19) using a primary rabbit recombinant anti-CK19 antibody (Abcam®, cat #ab76539) and a secondary Envision anti-rabbit antibody coupled to HRP (Dako®, cat #K4003), and counter-stained with H&E. Images of whole lung slides were acquired on a SCN400 Slide Scanner (Leica®) and analyzed with the QuPath Software (0.1.2). Quantification was performed according to Chang and Erler (Adv Exp Med Biol, 2016; 899, 245-251), and the number of lung metastases was proportional to the positive areas of CK19 staining.

In assay [5] the test system is MDA-MB-436 spheroids. Description: Spheres / stem-like spheroids. It counts as cell-based, human. The settings on record: increasing doses of MitoQ, over 1 week. How it is done: 3D models were used to obtain an enriched population in stem cells. For that, 10^4 MDA-MB-231, SkBr3 or MDA-MB-436 cancer cells were grown in suspension using 10 cm dishes coated with Polyhema in stem-cell medium: DMEM/F-12 (Gibco®, cat #11320033) supplemented with 100 units/mL penicillin, 100 μg/mL streptomycin, 20 μL/mL B27 (Gibco®, cat #17504044), 20 ng/mL human recombinant epithelial growth factor (EGF) (Peprotech®, cat #AF-100-15), 10 ng/mL basic fibroblast growth factor (bFGF; Peprotech®, cat #100-18B) and 2.5 mg/mL insulin. When spheres reached around 100 μm in diameter, they were washed with PBS and dissociated with accutase (Stem Cell Technology®, cat #07920) in order to have single cells again. […] Images were captured on Axiovert™ 40 CFL microscope equipped with a MRC camera. At the end of the treatment, living cells were collected for RNA extraction.
Stem like-spheroids were prepared by seeding 5,000 MDA-MB-231, SkBr3 or MDA-MB-436 dissociated spheres/well in ultra-Low attachment 96-well plates (Corning®, cat #7007) in stem cell medium supplemented as described above. […] Spheroid growth was monitored using an Axio Observer live-cell phase contrast microscope (Zeiss®).

With `COC1=C(OC)C(=O)C(CCCCCCCCCC[P+](c2ccccc2)(c2ccccc2)c2ccccc2)=C(C)C1=O` [MitoQ], the “basal, maximal and ATP-linked OCRs” value in assay [1] is “repressed”. Besides, in assay [2], the OCRs entry is reported as “reduced”. Further, in assay [3], the “protein expression of Vimentin, SNAI1, SNAI2 (SLUG), ZEB1 and TWIST1” value was “decrease”. Also, the primary tumor growth result in assay [4] (P=0.3150) is given as “not significantly affected”. Moreover, the recurrence-free survival entry in assay [4] (after surgery) is given as “significantly improved”. Further, the “mice with no metastasis” value in assay [4] (day +56, 9.5% in the control group) is reported as 75.0%. For the same compound, the “metastatic dissemination (lungs)” value in assay [4] (sacrifice day +56) is reported as “highly significantly prevented”. In assay [4] (surgery day +32, 100% in the control group), the “animals in which primary tumors relapsed after surgery” value came to 25%. Moreover, in assay [5], the spheroid formation result is “dose-dependently retarded”.
